PubChem BioAssay (NCI)
Values joined by “and” are separate entries in the source; they are usually repeats but may differ in a detail not shown here. Identical values can stand only once.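 Five compound concentrations were applied to cells in 96-well plates for 48 hours; endpoints were derived by simple linear interpolation of the resulting dose-response curve. GI50: concentration for 50% inhibition of growth. TGI denotes the concentration required for complete inhibition of growth.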

tested on: A549 NSCLC; experiment: inhibition of tumour cell growth, NCI panel, 48 h

Compared with `NC(CSC(c1ccccc1)(c1ccccc1)c1ccc2c(c1)OCO2)C(=O)O` (configuration not stated), `O=C(NCCNc1nccc(-c2c(-c3cccc(O)c3)nc3sccn23)n1)c1ccccc1O` is 7.9-fold higher in GI50: 0.635 µM for the first, 5.02 µM for the second.

Compared with `CCCCCCCC(=O)SCC/C=C/[C@@H]1CC(=O)NCc2cccc(n2)C2=N[C@@](C)(CS2)C(=O)N[C@@H](C(C)C)C(=O)N1`, `C[C@@H](CS(C)(=O)=O)Nc1ncc2cc(Oc3ccc(F)cc3F)c(=O)n(C)c2n1` is higher in GI50: 0.723 µM for the first, > 25 µM for the second.

Compared with `COc1cc2c(c(OC)c1O)C(=O)C(OC)C(c1ccc(O)c(O)c1)O2` (configuration not stated), `COc1ccc(C2=CSc3cc(Cl)c(C)cc3S(=O)(=O)N2C(C)=O)cc1` is 21-fold higher in GI50: 1.31 µM for the first, 27.4 µM for the second.

First: Cn1ccnc1C(=O)/C=C/c1ccc(CC(=O)Nc2ccc(Br)cc2)cc1
Second: CC1=C(C(=O)Nc2ccc(F)c(Cl)c2)C(c2ccc(Cl)cc2)NC(=O)N1 (configuration not stated)
The GI50 of the first is 4.3-fold lower: 4.68 µM for the first, 20.1 µM for the second.

Going from `CNC(=O)c1ccccc1Nc1nc(Nc2ccc(N3CCOCC3)cc2OC)ncc1Cl` to `Oc1ccc(Cl)cc1-c1cc(-c2ccccc2Cl)[nH]n1`, the GI50 rises from 0.344 µM to 4.74 µM (14-fold).

Compound `CC(=O)[O][Hg][c]1c(N)c(C)cc(C)c1F` has a GI50 of 9.72 µM.

`NC(CSC(c1ccccc1)(c1ccccc1)c1ccc2c(c1)OCO2)C(=O)O` (configuration not stated) and `O=C(O)C(Cc1ccccc1)N1C(=O)N/C(=C\c2ccc(F)cc2)C1=O` (configuration not stated) cannot be ordered by TGI: > 100 µM for the first, > 100 µM for the second.

`C=CCc1cc(OC)c2c(c1)C(O)CC(c1ccc(OC)c(OC)c1)O2` (configuration not stated) and `COc1cc2c(c(OC)c1O)C(=O)C(OC)C(c1ccc(O)c(O)c1)O2` (configuration not stated) cannot be ordered by TGI: > 100 µM for the first, > 100 µM for the second.

`O=C(NCCNc1nccc(-c2c(-c3cccc(O)c3)nc3sccn23)n1)c1ccccc1O` and `CNC(=O)c1ccccc1Nc1nc(Nc2ccc(N3CCOCC3)cc2OC)ncc1Cl` cannot be ordered by TGI: > 51.1 µM for the first, > 20.4 µM for the second.

`CCCCCCCC(=O)SCC/C=C/[C@@H]1CC(=O)NCc2cccc(n2)C2=N[C@@](C)(CS2)C(=O)N[C@@H](C(C)C)C(=O)N1` and `CC(C)=CCCc1c(C)ccc2c1C(=O)C(=O)C(C(C)C)=C2` cannot be ordered by TGI: > 33.3 µM for the first, > 22 µM for the second.

`C[C@@H](CS(C)(=O)=O)Nc1ncc2cc(Oc3ccc(F)cc3F)c(=O)n(C)c2n1` and `COc1ccc(C2=CSc3cc(Cl)c(C)cc3S(=O)(=O)N2C(C)=O)cc1` cannot be ordered by TGI: > 25 µM for the first, 65 µM for the second.

Compared with `Cn1ccnc1C(=O)/C=C/c1ccc(CC(=O)Nc2ccc(Br)cc2)cc1`, `COc1cccc(NC(=O)CC(=O)n2nc(C)c(N=Nc3ccccc3)c2C)c1` is higher in TGI: 13.2 µM for the first, > 100 µM for the second.

`COC(=O)[C@@H](C)C[C@H](Cc1ccc(F)cc1)NC(=O)c1csc([C@@H](C[C@H](C(C)C)N(C)C(=O)[C@@H](NC(=O)[C@H]2CCCCN2C)C(C)C)OC(C)=O)n1` and `COc1ccccc1NC(=O)CC(=O)n1nc(C)c(N=Nc2ccccc2C(=O)O)c1C` cannot be ordered by TGI: > 16.7 µM for the first, > 100 µM for the second.

Compared with `N#CC(C#N)=c1ccc(=C2NCC3CCCN23)cc1` (configuration not stated), `CC1=C(C(=O)Nc2ccc(F)c(Cl)c2)C(c2ccc(Cl)cc2)NC(=O)N1` (configuration not stated) is lower in TGI: > 100 µM for the first, 46.3 µM for the second.

`CCOC(=O)COc1cccc2c1C(=O)CCO2` and `CCOC(=O)C1=C(C)CC2C(=O)OC(=O)C2C1(C)C` (configuration not stated) cannot be ordered by TGI: > 100 µM for the first, > 100 µM for the second.

`Nc1ccc(C(=O)N/C(=C\c2ccc3c(c2)OCO3)c2nc3[nH]c(=S)[nH]c(=O)c3[nH]2)cc1` and `O=C(N/C(=C\c1cc(Cl)ccc1Cl)c1nc2[nH]c(=S)[nH]c(=O)c2[nH]1)c1ccccc1` cannot be ordered by TGI: > 100 µM for the first, > 100 µM for the second.

`O[C@H]1[C@H]2c3cc4c(cc3CN3CCC(=C[C@@H]1O)[C@H]23)OCO4` and `c1cc2c(cc1NC1=NCCO1)CCC2` cannot be ordered by TGI: 13.1 µM for the first, > 10 µM for the second.

`COC(=O)[C@@]12C3=NO[C@]1(C(=O)OC)C(O[Si](C)(C)C(C)(C)C)[C@H]1OC(C)(C)O[C@H]1[C@@H]2C(OCc1ccccc1)CC3` (some centres not stated) and `CC(=O)OC1COC(n2c(=S)n(-c3ccc(C)cc3)c(=O)c3ccccc32)C(OC(C)=O)C1OC(C)=O` (configuration not stated) cannot be ordered by TGI: > 100 µM for the first, > 100 µM for the second.

`CN(CC(=O)O)S(=O)(=O)c1ccc2ccccc2c1` and `CCOC(=O)C(Sc1ccccc1)c1c(OC)cc(=O)oc1/C=[N+](/[O-])c1ccc(N(C)C)cc1` (configuration not stated) cannot be ordered by TGI: > 100 µM for the first, > 100 µM for the second.

`O=[S@@]1Nc2ccc(Br)cc2S1` and `C/C(CCn1[nH]c(=O)ccc1=O)=N\O` cannot be ordered by TGI: > 100 µM for the first, > 100 µM for the second.

`COc1ccc2c(c1)C1(C=N2)CCN(C(C)=O)CC1` and `COc1ccc2nc3cc(Cl)ccc3c(Sc3ccccc3[N+](=O)[O-])c2c1` cannot be ordered by TGI: > 100 µM for the first, > 100 µM for the second.

`O=C1NC2(CCCCC2)C2CCCCC(O)C12` (configuration not stated) and `CC(=O)N1[C@H](C(=O)O)CS[C@H]1c1ccncc1` cannot be ordered by TGI: > 100 µM for the first, > 100 µM for the second.

`Oc1ccc(Cl)cc1-c1cc(-c2ccccc2Cl)[nH]n1` and `O=C(O)CCSC(=O)Nc1cccc(F)c1` cannot be ordered by TGI: > 100 µM for the first, > 100 µM for the second.

Work on `CC(=O)[O][Hg][c]1c(N)c(C)cc(C)c1F` yielded a TGI of 28.8 µM.

For `COC(=O)[C@@H](C)C[C@H](Cc1ccc(F)cc1)NC(=O)c1csc([C@@H](C[C@H](C(C)C)N(C)C(=O)[C@@H](NC(=O)[C@H]2CCCCN2C)C(C)C)OC(C)=O)n1`, the GI50 was 0.00277 µM and 0.0107 µM.

tested on: ACHN renal; experiment: inhibition of tumour cell growth, NCI panel, 48 h

`NC(CSC(c1ccccc1)(c1ccccc1)c1ccc2c(c1)OCO2)C(=O)O` (configuration not stated) and `O=C(NCCNc1nccc(-c2c(-c3cccc(O)c3)nc3sccn23)n1)c1ccccc1O` are within 1.5-fold of each other in GI50: 4.06 µM for the first, 3.35 µM for the second.

`NC(CSC(c1ccccc1)(c1ccccc1)c1ccc2c(c1)OCO2)C(=O)O` (configuration not stated) and `O=C(NCCNc1nccc(-c2c(-c3cccc(O)c3)nc3sccn23)n1)c1ccccc1O` cannot be ordered by TGI: > 100 µM for the first, > 53.4 µM for the second.

`C=CCc1cc(OC)c2c(c1)C(O)CC(c1ccc(OC)c(OC)c1)O2` (configuration not stated) was tested, and the TGI was > 100 µM.
